Assay results: patent US20100255089A1, “Pharmaceutical Compositions and Methods of Using Same” (priority 2006, published 2010)

Assay: physchem
Details: simulated gastric fluid
Experimental: In an uncapped vial, one part of the compound of Formula I is mixed with three, four, six, or nine parts polyvinylpyrrolidone (PVP-25/Kollidon 25), respectively. The mixture is dissolved in a sufficient amount of a mixture of acetone and ethanol, until all powders were in solution. The uncapped vial is placed into a vacuum oven set at 40° C., and let dry for at least 24 hours.
After that treatment, an amorphous state of the powder is achieved, which could be identified, e.g. by X-ray diffraction measurements or by determination of the solubility.

solubility: 0.1 µg/mL
Structure (SMILES): Cc1cc(C)c2c3ccccc3n(Cc3ccc([C@@H](C(=O)N[C@@H](CO)c4ccccc4)C4CCCC4)cc3)c2n1 [compound of Formula I, (2S)-2-cyclopentyl-2-(4-((2,4-dimethyl-9H-pyrido(2,3-B)indol-9-yl)methyl)-phenyl)-N-((1R)-2-hydroxy-1-phenylethyl)acetamide]
